For experiment [1], the system named is Staphylococcus aureus. Put plainly: Antimicrobial activity against Staphylococcus aureus ATCC 29213 after 24 hrs. Format: functional. The settings on record: ATCC 29213, 24 h.
Experiment [2] concerns Escherichia coli. Put plainly: Antimicrobial activity against Escherichia coli ATCC 25922 upto 100 ug/ml after 24 hrs. Format: functional, organism-based.

Values after ≈ are worked out from the molar mass of the structure shown. Active and inactive are the calls of the source. The calls are words filed in the database; no cut-off is given here. Some results are limits rather than exact numbers.

In experiment [1], `CCCCc1cn(C[C@H]2CN(c3ccc4c(c3)Oc3ccccc3O4)C(=O)O2)nn1` displayed an MIC greater than 50 µg/mL. Further, the result in experiment [2] was inactive.

Consider `CC(=O)NC[C@H]1CN(c2ccc3c(c2)Oc2ccccc2O3)C(=O)O1`, for which the MIC in experiment [1] was found to be 2 µg/mL (≈ 5.88 µM).

Consider `O=C(O)c1cn(C[C@H]2CN(c3ccc4c(c3)Oc3ccccc3O4)C(=O)O2)nn1`, for which the MIC in experiment [1] is greater than 50 µg/mL. In addition, the result in experiment [2] was inactive.

Compound `O=C1O[C@@H](Cn2ccnn2)CN1c1ccc2c(c1)Oc1ccccc1O2` displayed a minimum inhibitory concentration (MIC) in experiment [1] greater than 50 µg/mL. The result in experiment [2] was inactive.

Values taken from ChEMBL document CHEMBL1142290, “Synthesis of novel oxazolidinone antimicrobial agents” (2008).
